Test results published in patent US9422238B2, “ICMT inhibitors” (National University of Singapore, priority 2012, dated 2016).
Several values for one entry are separate records, joined by “and”; a condition that tells them apart may be missing. Equal entries are not always repeated. Where two headings read alike, the source gives them in different places.

Key:
[1] = tested on: HepG2, MIA PACA II, MDA-MB-231 and PC3 cells; assay: Cell viability on panel of 4 malignant cell lines; format: cell-based; details: Homo sapiens, MDA-MB-231, PC3, read-out: IC50 values, range over the malignant cell lines
Protocol: Determinations were made in duplicates or triplicates.
Cell viability was determined from the expression:
Human hepatocellular carcinoma HepG2 and human pancreatic cancer MIA PACA II cells were obtained from ATCC (Rockville, Md.). They were grown in DMEM (high glucose, Invitrogen) supplemented with 10% FBS, 50 μg/mL penicillin and 50 μg/mL streptomycin, 37° C., 5% CO2 until they reached 80-90% confluency, after which they were subcultured. Passage numbers were kept within 7-14 passages for both cell types.

[2] = Pharmacokinetic study, IP; format: in vivo, mice; details: for detection in plasma at late time points: IP; for half-life / AUC / Tmax / Cmax: female, mouse, plasma; for half-life: Balb/c
PC3 cells [3] = assay: Cell cycle analysis by flow cytometry; format: cell-based, human; details: PC3, 48 h
Protocol: PC3 cells were seeded at 100 000 cells/mL per well in 6-well plates with media DMEM (high glucose, 10% FBS, 50 μg/mL penicillin, 50 μg/mL streptomycin) and incubated (24 h, 37° C., 5% CO2) to allow cell attachment after which they were treated with test compound (in DMEM, high glucose, 5% FBS, 50 μg/mL penicillin, 50 μg/mL streptomycin) for 48 h. Final volume of DMSO per well was 0.05% v/v. Control wells (without test compound) were similarly treated. After the specified time, supernatant in the well was collected; the cell pellet was trypsinized, combined with the supernatant and pelleted by centrifugation (150 g, 5 min). After rinsing the pellet twice with ice-cold 1×PBS, the cells were suspended in 0.3 mL PBS, to which was added dropwise and with gentle shaking, cold ethanol (0.7 mL) to give a final concentration of 70% ethanol. The cell sample was then kept at 4° C. overnight after which it was centrifuged (150 g, 5 min), the supernatant was removed, the pellet rinsed with cold PBS and re-suspended in a solution of 100 μg/mL propidium iodide (PI, Sigma Aldrich, Singapore) and 0.1 mg/mL ribonuclease A (Sigma Aldrich, Singapore) in PBS (500 μL). The suspension was kept in the dark for 1 h, 25° C. (room temperature) before being analyzed for distribution in the G1,S, G2/M phases on a FCS500 flow cytometer (Beckman Coulter, CA) using the FlowJo® software (http: http://www.flowjo.com/) Each test compound was evaluated at 4 concentrations with 2 repeats per concentration.

PC3 cells [4] = assay: Apoptosis by Annexin V-FITC / propidium iodide staining; format: cell-based, human; details: PC3, 48 h; for % Apoptotic / % Necrotic / % Normal: one analysis only; for induction of apoptosis: one determination, preliminary
Protocol: The Annexing® V-FITC Apoptosis Detection Kit (BD Biosciences, Franklin Lakes, N.J.) was used PC3 cells were seeded at 65 000 cells per well in 6-well plates with DMEM (high glucose, supplemented with 10% FBS) as media. Plates were incubated (24 h, 37° C., 5% CO2) for cells to attach and then treated with test compound (prepared in same media but with 5% FBS) for 48 h. Final volume of DMSO per well was 0.05% v/v. After the specified time, the supernatant in the well was collected, the cell pellet was trypsinized, combined with the supernatant and pelleted by centrifugation (150 g, 5 min). The pellet was rinsed twice with cold 1×PBS and suspended in the proprietary binding buffer (1×) to give a concentration of 10^6 cells per mL. An aliquot (100 μL) of the suspension containing 10^5 cells was transferred to the FACS tube (5 mL) to which was added Annexin® V-FITC solution (5 μL) and propidium iodide (PI) solution (5 μL). The solution was gently vortexed, incubated in the dark for 15 min at room temperature (25° C.), after which was added 400 μL of the binding buffer (1×). The sample was analyzed immediately or no later than 1 h, in which case it should be kept in ice and protected from light. Analysis was carried out on a FCS500 flow cytometer (Beckman Coulter, CA) using the FlowJo® software (http: http://www.flowjo.com/). Controls comprised untreated cells, cells exposed to Annexin® V-FITC only, and cells exposed to PI only. Each test compound was evaluated at 4 concentrations. Only 1 determination was made per concentration.

[5] = Parallel Artificial Membrane Permeability Assay (PAMPA); details: for Papp at 16 h: PAMPA, pH 7.4
Protocol: Briefly, determinations were carried out on MultiScreen-IP PAMPA assay (donor) plates (MAIPNTR10) and MultiScreen Receiver Plates (MATRNPS50) from Millipore Corporation (USA) with 1% lecithin (L-α-phosphatidylcholine from lyophilized powder of egg yolk, Sigma Aldrich, USA) in dodecane (ReagentPlus®, Sigma Aldrich, USA) as lipid barrier. 5 μL of 1% lecithin in dodecane was dispensed into the wells of the donor plates. […] The mobile phase was Milli-Q water (0.1% formic acid) and acetonitrile (0.1% formic acid), run on gradient.
Pe was obtained from Equation 1:
[formula] Where VA and VD are the volumes of acceptor (cm^3) and donor (cm^3) wells respectively, A is the area of the surface area of the membrane (0.24 cm^2), t is the permeation time (s); S is the fraction of sample remaining in the donor and acceptor wells after permeation time and is determined from Equation 2, CA and CD are the concentrations (μM) of test/reference compound in acceptor and donor wells respectively.
The Pe of each compound was obtained from at least 3 separate experiments using no less than 2 different stock solutions. For each independent determination, triplicates (3 wells) were run for each compound.

Icmt = Icmt (Homo sapiens, UniProt O60725); details: background, cited from earlier work
Icmt, sequence (O60725 whole entry, species assumed): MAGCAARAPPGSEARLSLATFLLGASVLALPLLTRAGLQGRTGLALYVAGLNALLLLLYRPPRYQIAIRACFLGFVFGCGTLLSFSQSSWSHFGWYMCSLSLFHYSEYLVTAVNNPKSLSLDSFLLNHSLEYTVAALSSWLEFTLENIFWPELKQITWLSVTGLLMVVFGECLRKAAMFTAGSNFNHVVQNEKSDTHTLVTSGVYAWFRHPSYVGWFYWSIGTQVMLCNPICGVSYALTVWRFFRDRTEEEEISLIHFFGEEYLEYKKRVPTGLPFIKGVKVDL

[6] = Balb/c mice, 20 mg/kg IP, 20 mg/kg

## CCCCCCCCn1cc(CN(CC)CC)c2cc(-c3cnc(N)nc3)ccc21 [Compound 8-12, 5-(3-Diethylaminomethyl-1-octyl-1H-indol-5-yl)-pyrimidin-2-ylamine]
[1]
  IC50: 1.6 to 2.6 µM
[2]; 10 mg/kg or 25 mg/kg IP
  time to peak concentration in plasma: within an hour
[2]; Balb/c mice, 10 mg/kg IP
  Clearance: 6.67 mL/min/kg
  AUC: 24.6 µg·h/mL
  Tmax: 0.25 h
  Cmax: 17.9 µg/mL
[2]; Balb/c mice, 25 mg/kg IP
  Clearance: 10.1 mL/min/kg
  Volume of Distribution: 1.185 L/kg
  AUC: 40.8 µg·h/mL
  Tmax: 0.75 h
  Cmax: 17.4 µg/mL
[2]; Balb/c mice
  detection in plasma at late time points: not detected after 24 h and 48 h
[2]; intraperitoneal, summary, treated mice, read-out: half life
  half-life: < 1 h
[2]; ip, 10 mg/kg or 25 mg/kg IP, estimated, read-out: half life
  half-life: < 3 h
[2]; ip, 10 mg/kg, Balb/c mice, 10 mg/kg IP, read-out: T1/2 (converted)
  half-life: 1.25 h
[2]; ip, 25 mg/kg, Balb/c mice, 25 mg/kg IP, read-out: T1/2 (converted)
  half-life: 1.36 h
PC3 cells [3]
  effect on cell cycle distribution: increased cells in the G1 phase while decreasing cells in G2 phase
PC3 cells [3]; 0.8 μM
  % Cells in G1 phase: 52.92 (2) %
  % Cells in G2 phase: 24.22 (2) %
PC3 cells [3]; 1.0 μM
  % Cells in G1 phase: 59.98 (2)^3%
  % Cells in G2 phase: 26.99 (2.77, 3) %
PC3 cells [3]; 2.0 μM
  % Cells in G1 phase: 66.45 (2)^3%
  % Cells in G2 phase: 11.20 (2)^3%
PC3 cells [4]; 0.4 μM
  % Apoptotic: 1.45%
  % Necrotic: 4.95%
  % Normal: 93.6%
PC3 cells [4]; 0.8 μM
  % Apoptotic: 1.31%
  % Necrotic: 6.85%
  % Normal: 91.8%
PC3 cells [4]; 1.0 μM
  % Apoptotic: 0.71%
  % Necrotic: 8.84%
  % Normal: 90.4%
PC3 cells [4]; 1.2 μM
  % Apoptotic: 0.93%
  % Necrotic: 7.43%
  % Normal: 91.6%
PC3 cells [4]
  induction of apoptosis: Induction of apoptosis was also not observed
[5]
  Papp at 16 h: 14.2 ×10⁻⁶ cm/s
[5]; pH 7.4, 16 h agitation, 1% lecithin in dodecane
  PAMPA Pe (×10^−6 cm/s): 14.2 ×10^−6 cm/s and 14.2 (±1.4) ×10^−6 cm/s

## CCCCCCCCn1c2c(c3cc(-c4cnc(N)nc4)ccc31)CN(C)CC2 [Compound 305, 8-(2′-amino-pyrimidin-5′-yl)-2-methyl-5-n-octyl-1,2,3,4-tetrahydropyrido[4,3-b]indole]
[5]
  Papp at 16 h: 19.7 ± 0.56 ×10⁻⁶ cm/s

## CCCCCCCCn1cc(CC(N)=O)c2cc(-c3cccc(C)c3)ccc21 [Cysmethynil, 2-[5-(3-methylphenyl)-1-octyl-1H-indolo-3-yl]acetamide, reference compound]
[2]; Balb/c mice, 20 mg/kg IP
  Clearance: 0.395 mL/min/kg
  AUC: 843 µg·h/mL
  Tmax: 0.75 h
  Cmax: 210 µg/mL
[2]; [6]
  T1/2: 1.55 h
  Volume of Distribution: 0.0529 L/kg
[2]; Balb/c mice, 20 mg/kg IP, listed as cysmethynil, 20 mg/kg
  Volume of Distribution: 0.053 L/kg
[2]; Balb/c mice, 100 mg/kg IP
  Clearance: 0.217 mL/min/kg
  Volume of Distribution: 0.0799 L/kg
  AUC: 7690 µg·h/mL
  Tmax: 0.75 h
  Cmax: 1160 µg/mL
[2]; Balb/c mice
  detection in plasma at late time points: could not be detected in plasma beyond this time
[2]; ip, 20 mg/kg, Balb/c mice, 20 mg/kg IP, read-out: T1/2 (converted)
  half-life: 1.6 h
[2]; ip, 100 mg/kg, Balb/c mice, 100 mg/kg IP, read-out: T1/2 (converted)
  half-life: 4.3 h
PC3 cells [3]
  effect on cell cycle distribution: the changes in G1/G2 cell populations were not statistically significant
PC3 cells [3]; 12.5 μM
  % Cells in G1 phase: 53.0 (2) %
  % Cells in G2 phase: 27.87 (2) %
PC3 cells [3]; 17.5 μM
  % Cells in G1 phase: 51.83 (2) %
  % Cells in G2 phase: 26.85 (12.28, 3) %
PC3 cells [3]; 20.0 μM
  % Cells in G1 phase: 54.85 ( 2) %
  % Cells in G2 phase: 32.07 (2) %
PC3 cells [4]; 12.5 μM
  % Apoptotic: 0.92%
  % Necrotic: 6.94%
  % Normal: 92.1%
PC3 cells [4]; 17.5 μM
  % Apoptotic: 1.96%
  % Necrotic: 8.33%
  % Normal: 89.7%
PC3 cells [4]; 20.0 μM
  % Apoptotic: 1.23%
  % Necrotic: 8.06%
  % Normal: 90.7%
PC3 cells [4]; 22.5 μM
  % Apoptotic: 1.21%
  % Normal: 89.6%
PC3 cells [4]
  induction of apoptosis: not found to induce apoptosis
Icmt; read-out: Ki of initial reversible complex with the enzyme
  Ki: 2.39 µM
Icmt; time dependent inhibition, read-out: overall dissociation constant of EI* complex
  Ki: 0.11 µM
